Data from patent US8871735B2, “Methods and compositions for providing cardiac protection” (University of Medicine and Dentistry of New Jersey, priority 2008, dated 2014).
“And” between values parts separate entries of the source, which are not always exact repeats. Identical values can stand only once. “Also recorded” adds a separate entry of the source. Like-named read-outs stand apart in the source and are kept apart here.

Legend:
H9C2 cells = experiment: cAMP accumulation in H9C2 cells; type: cell-based; conditions: 5 μM ISO, 3 minutes, 10 μM drug
Source text: […] Fludarabine ((+)-2-Fluoro-9-(5-O-phosphono-β-D-arabinofuranosyl)-9H-purin-6-amine) and Cladribine (2-chloro-2′-deoxyadenosine) are anti-cancer drugs, Adefovir (Bis(2,2-dimethylpropanoyloxymethyl)[2-(6-amino-9H-purin-9-yl)ethoxymethyl]phosphonate) and Zidovudine are anti-HIV drugs. Zidovudine-TP is a metabolite of zidovudine which inhibits virus replication. TP; triphosphate. 3-Deazaadenosine, Formycin A (7-Amino-3-(β-D-ribofuranosyl)-1H-pyrazolo[4,3-d]pyrimidine), 2-Far (2-Fluoroadenosine), formycin A ((2S,3R,4S,5R)-2-(7-amino-2H-pyrazolo[5,4-e]pyramidin-3-yl-5-(hydroxymeth-yl)oxolane-3,4-diol), 2-FD (2-Fluoro-2′-deoxyadenosine) and 2′5′ ddAdo (2′5′-dideoxyadenosine) are experimental drugs.
(§1) Mice were anesthetized with 2.5% tribromoethanol (0.010 to 0.015 mL per gram of body weight) injected intraperitoneally, and echocardiography was performed with ultrasonography (ACUSON Sequoia C256, Siemens Medical Solutions, Malvern, Pa.). For acute injection of isoproterenol, forskolin and milrinon, a PE-10 catheter was inserted into the right jugular vein, and drugs were injected at the rate of 1 μl/s. cAMP accumulation assay in H9C2 cells, a cardiac myoblast cell line, was examined as previously described.

type 5 AC = type 5 AC (Homo sapiens, UniProt O95622); experiment: Double-reciprocal plots of type 5 AC catalytic activity against ATP
Experimental: Hearts and striatum were dissected from the mice and membrane preparations were made as previously described. This crude membrane preparation was used in the AC assay. AC activity was measured by a modification of the method of Salomon et al. as previously described. […] Double-reciprocal plots were examined as previously described.

AC5 [1] = experiment: AC inhibition, recombinant AC proteins: AC5; type: biochemical
cardiac myocytes = experiment: ISO-induced apoptosis in cultured cardiac myocytes (DNA fragmentation ELISA); type: cell-based; conditions: 100 μM ISO, 48 h
Experimental: Cultured cardiac myocytes were incubated with 100 μM ISO in the presence or absence of AC5 inhibitors at the indicated concentrations for 48 h.

[2] = tested on: C57Bl/6 mice, chronic ISO infusion; experiment: Chronic ISO infusion heart failure model; type: in vivo, mouse
Source text: ISO with or without AC5 inhibitors were chronically infused with osmotic mini-pump implanted subcutaneously at indicated doses for 1 week in c57Bl/6 mice. Mice were then subjected to echocardiography (a) and the hearts were removed and subjected to pathological examinations such as myocardial apoptosis (b) and fibrosis (c). n=4-8.
In C57Bl/6 mice, ISO with or without AC5 inhibitors or metoprolol were chronically infused with an osmotic mini-pump at the indicated doses for 1 week. Mice were then subjected to echocardiography (a) and heart tissue were subjected to a myocardial apoptosis assay (b). *, p<0.01 vs vehicle. #, p<0.05 vs vehicle. .dagger., p<0.01 vs ISO. .dagger-dbl., p<0.05 vs ISO. n=4-15. […] Comparisons between multiple groups were made using ANOVA with post-hoc tests.
Tenofovir diphosphate (PMPA-PP), zidovudine monophosphate (MP), zidovudine diphosphate (PP), zidovudine triphosphate (TP), famciclovir penciclovir and valaciclovir were purchased from Moravek. Formycin A (FMA) and Formycin B (FMB) were purchased from Berry and Associates. All other reagents were from Sigma unless specified. Long-term infusion of isoproterenol (Sigma, St. Louis, Mo.) was performed for 7 days at a dose of 60 mg/kg/d with or without AC5 inhibitors by using a miniosmotic pump (ALZET model 2001, DURECT Corp, Cupertino, Calif.). Control mice received vehicle in pumps. Pumps were removed 24 hours before biochemical and physiological studies. Experiments were performed in 3- to 5-month-old male C57Bl/6, and in AC5Tg transgenic mice. This study was approved by the Animal Care and Use Committee at New Jersey Medical School.
as §1

AC5 [3] = target: T1, AC5 (UniProt P30803); experiment: AC inhibition, recombinant AC proteins: AC5; type: biochemical; conditions: read-out: IC50 for AC5
T1 construct: IC50 AC5; other: recombinant AC proteins; other: THFA: in the presence of Gs-α/GTPαS/forskolin

WT and AC5KO mice = experiment: Heart rate and arterial pressure in conscious WT and AC5KO mice; type: in vivo, mouse; conditions: for decrease in HR in conscious AC5KO / decrease in HR in conscious WT: 0.01 μg/g (0.01 mg/kg) i.v.
Source text: In AC5KO and WT mice, four ECG wires (New England Electric Wire Corporation, Lisbon, N.H., USA) were placed subcutaneously, a silicone elastomer tubing (Cardiovascular Instrument Corp., Wakefield, Mass., USA) was inserted into the right external jugular vein and a 1.4 F micromanometer catheter (Millar Instruments, Inc., Houston, Tex., USA) was inserted into the lower abdominal aorta via the femoral artery as described previously with some modifications. The ECG wires, the silicone elastomer tubing and the micromanometer catheter were tunneled subcutaneously to the back, externalized, and secured in a plastic cap. On the day of the study, each mouse was placed in the mouse holder, the jugular venous catheter was accessed and connected to a microliter syringe (Hamilton Co., Reno, Nev., USA), the 1.4 F micromanometer catheter was connected to a recorder (Dash 4u; Astro-Med, Inc., West Warwick, R.I., USA) and the ECG wires were connected to an ECG amplifier (Gould Inc., Cleveland, Ohio, USA). All experiments were recorded with animals in the conscious state. After at least 6 hours recovery from the implantation of the catheter, when a stable heart rate (HR) was achieved, the baseline ECG and arterial pressure (AP) were recorded for 5 min. Ach (0.05 μg/g) was then administered intravenously (i.v.), and the ECG and AP recording were repeated. A recovery period of 15 min was allowed for the HR and AP to return to baseline before administering the next drug. Baseline HR slowing was examined in response to phenylephrine (0.2 μg i.v.).
Electrocardiogram (ECG) wires, a jugular vein catheter for drug infusion, and a femoral artery catheter for arterial pressure monitoring were implanted under anesthesia. Measurements of left ventricular ejection fraction (LVEF) were taken using echocardiography under anesthesia with 2.5% tribromomethanol (0.010-0.015 ml/g body wt) injected intraperitoneally (i.p.). Intravenous (i.v.) infusion of ISO (0.04 μg/kg/min i.v. for 5 min) was performed using an infusion pump. To examine the responses to a muscarinic agonist, acetylcholine (ACh) (25 mg/kg i.p.) was co-administered i.p. during the i.v. infusion of ISO (0.04 μg/kg/min). In addition, in conscious mice ACh (0.01 and 0.05 mg/kg), atropine (0.25, 1 and 2 mg/kg), or verapamil (0.75 mg/kg) were administered i.v., and the ECG was recorded. A recovery period of 15 min was allowed for the HR to return to baseline before administering the next drug. To examine HR responses to baroreflex hypertension, phenylephrine (0.2 mg/kg i.v.) was infused, and the ECG and arterial pressure were measured.

AC = AC activity in heart membranes from WT and AC5KO mice; type: biochemical, mouse
Experimental: Protein concentration was measured by the method of Bradford using bovine serum albumin as a standard. AC activity was measured as described previously. AC activity was linear within the incubation time up to 30 min. In order to harvest hearts for tissue cAMP content measurements, mice were allowed to acclimate to the surroundings in the laboratory for an hour before sacrifice. Freshly isolated hearts were briefly immersed in liquid nitrogen. The tissue was homogenized in ice-cold 6% percholic acid, and cAMP was extracted as described before. The concentration of cAMP was determined with an RIA kit (PerkinElmer Life Sciences, Boston, Mass., USA).
cAMP production in membranes from the hearts of AC5KO and WT at 6 months of age was examined. The steady state AC activity was determined as the maximal capacity of cAMP production in the presence of ISO (100 μM ISO+100 μM GTP), GTPγS (100 μM) or forskolin (100 μM). […] Basal cardiac function was not decreased, but the response to ISO and muscarinic inhibition of ISO were attenuated.
Protein concentration was measured by the Bradford method using bovine serum albumin as a standard. AC activity was measured as described previously. AC activity was linear within the incubation time up to 30 min. For the study of Ca^2+ inhibition, the membranes were treated first with EGTA to extract the endogenous Ca^2+ prior to the assay. Free Ca^2+ concentrations were obtained with the use of 200 μmol/L EGTA buffers as described previously. The experiments with Ca^2+ inhibition were conducted in the presence of 100 μmol/L isoproterenol (ISO) plus 100 μmol/L GTP.
cAMP production in membranes from the hearts of AC5KO and WT mice at the age of 6 months were examined. The steady state AC activity in the membrane preparation was determined as the maximal capacity of cAMP production in the presence of ISO ([…], ISO+100 μmol/L GTP), guanosine-5′-O-(3-triophosphate) GTP[…]S (100 μmol/L), or forskolin (100 μmol/L). AC activity was decreased in AC5KO relative to that of WT by 35+/−4% (basal), 27+/−5% (ISO), 27+/−2% (GTPγS), and 40+/−5% (forskolin).

type 5 AC, sequence (O95622 whole entry): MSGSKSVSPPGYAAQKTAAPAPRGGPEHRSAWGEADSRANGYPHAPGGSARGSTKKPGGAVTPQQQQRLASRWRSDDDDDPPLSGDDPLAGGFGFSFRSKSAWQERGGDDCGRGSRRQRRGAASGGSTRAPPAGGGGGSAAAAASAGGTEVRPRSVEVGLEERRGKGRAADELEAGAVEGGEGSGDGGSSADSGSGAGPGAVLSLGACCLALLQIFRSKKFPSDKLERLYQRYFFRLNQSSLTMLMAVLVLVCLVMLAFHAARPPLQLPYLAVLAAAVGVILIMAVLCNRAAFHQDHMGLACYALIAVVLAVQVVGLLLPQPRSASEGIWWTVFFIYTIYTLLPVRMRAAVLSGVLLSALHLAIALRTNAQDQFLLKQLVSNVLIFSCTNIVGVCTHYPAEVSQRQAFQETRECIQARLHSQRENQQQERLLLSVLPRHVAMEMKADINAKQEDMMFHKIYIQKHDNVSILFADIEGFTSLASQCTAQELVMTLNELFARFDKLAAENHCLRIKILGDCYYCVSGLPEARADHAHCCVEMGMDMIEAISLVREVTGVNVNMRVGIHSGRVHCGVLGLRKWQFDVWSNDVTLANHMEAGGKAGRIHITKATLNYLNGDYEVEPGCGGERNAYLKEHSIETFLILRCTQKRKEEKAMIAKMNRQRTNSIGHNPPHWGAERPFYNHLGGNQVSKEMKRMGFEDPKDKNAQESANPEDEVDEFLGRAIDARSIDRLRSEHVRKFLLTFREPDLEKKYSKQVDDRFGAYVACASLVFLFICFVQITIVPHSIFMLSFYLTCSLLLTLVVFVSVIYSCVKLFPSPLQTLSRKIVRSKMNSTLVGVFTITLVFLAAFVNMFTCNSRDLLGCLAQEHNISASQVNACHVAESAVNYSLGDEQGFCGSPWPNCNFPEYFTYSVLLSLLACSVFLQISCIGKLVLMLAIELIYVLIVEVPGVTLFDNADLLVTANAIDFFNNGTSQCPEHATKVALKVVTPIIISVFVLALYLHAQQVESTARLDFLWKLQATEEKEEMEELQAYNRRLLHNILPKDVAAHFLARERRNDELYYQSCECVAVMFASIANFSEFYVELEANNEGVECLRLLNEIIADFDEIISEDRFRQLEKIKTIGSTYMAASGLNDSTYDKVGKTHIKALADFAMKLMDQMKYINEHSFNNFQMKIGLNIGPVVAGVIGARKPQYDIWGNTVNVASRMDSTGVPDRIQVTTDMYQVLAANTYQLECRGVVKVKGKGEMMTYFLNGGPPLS

CC(Cn1cnc2c(N)ncnc21)OCP(=O)(O)OP(=O)(O)OP(=O)(O)O (stereo in doubt) [PMPA-PP, Tenofovir diphosphate]
inhibition of cAMP accumulation in H9C2 cells (H9C2 cells): little inhibition

Nc1nc(F)nc2c1ncn2[C@@H]1O[C@H](CO)[C@@H](O)[C@H]1O [2-fluoroadenosine, 2-Fluoroadenosine]
inhibition of cAMP accumulation in H9C2 cells (H9C2 cells): moderately inhibited
mode of inhibition with respect to ATP (type 5 AC): non-competitive

C[C@H]1O[C@@H](n2cnc3c(N)ncnc32)C[C@@H]1O [2′5′-dd-Ado, 2′5′-dideoxyadenosine]
Selectivity ratio for AC5, AC5/AC2 (AC5 [1]; ratio of IC50 for AC5 to that for AC2): 0.00067
Selectivity ratio for AC5, AC5/AC3 (AC5 [1]; ratio of IC50 for AC5 to that for AC3): 0.0063
inhibition of cAMP accumulation in H9C2 cells (H9C2 cells): greatest inhibition
ISO-induced apoptosis in cultured cardiac myocytes (cardiac myocytes): abolished
ISO-induced decrease in LVEF (and FS) ([2]; ISO 60 mg/kg/d 7 days, Ara-Ade 20 and 100 mg/kg/day, 2′5′ ddAdo 20 mg/kg/day): rescued LVEF and FS reduction
ISO-induced cardiac fibrosis ([2]; chronic ISO infusion): significantly inhibited
ISO-induced myocardial apoptosis in vivo ([2]; chronic ISO infusion): significantly inhibited
ISO-induced wall thickening (DESP, DPW) ([2]; chronic ISO infusion): neither Ara-Ade nor 2′5′ ddAdo inhibited
LVW/BW and myocyte cross sectional area ([2]; chronic ISO infusion): increased
mode of inhibition with respect to ATP (type 5 AC): non-competitive

Nc1ncnc2c1ncn2[C@H]1C[C@H](OP(=O)(O)O)[C@@H](CO)O1 [2′-d-3′-AMP]
IC50 (AC5 [3]): 0.82 µM

Nc1ncnc2c1ncn2[C@@H]1O[C@H](CO)[C@@H](OP(=O)(O)O)[C@H]1O [3′-AMP]
IC50 (AC5 [3]; THFA: in the presence of Gs-α/GTPαS/forskolin): 14.6 µM

CC(=O)OCC[N+](C)(C)C [ACh, acetylcholine]
decrease in HR in conscious AC5KO (WT and AC5KO mice; AC5KO): 1.3%
decrease in HR in conscious AC5KO (WT and AC5KO mice; AC5KO, listed as Ach): 7.5%
decrease in HR in conscious WT (WT and AC5KO mice; WT): 15%
decrease in HR in conscious WT (WT and AC5KO mice; WT, listed as Ach): 22%

C[N+](C)(C)CCOC(N)=O [Carbachol]
inhibition of ISO-stimulated AC activity in AC5KO (AC; 10 μM, AC5KO heart membranes): did not inhibit; also recorded: hardly detectable
decrease of ISO-stimulated AC activity in WT (AC; 10 μM, WT heart membranes): 21+/−3.4% and 21+/−3%

Nc1ncnc2c([C@@H]3O[C@H](CO)[C@@H](O)[C@H]3O)n[nH]c12 [FMA, 7-Amino-3-(β-D-ribofuranosyl)-1H-pyrazolo[4,3-d]pyrimidine]
inhibition of cAMP accumulation in H9C2 cells (H9C2 cells): moderately inhibited

CC(C)NCC(O)c1ccc(O)c(O)c1 (centres unmarked) [ISO, isoproterenol]
increase in AC activity in AC5KO (AC; 100 μmol/L ISO + 100 μmol/L GTP, AC5KO): 64+/−4 pmol/15 min/mg
increase in AC activity in WT (AC; 100 μmol/L ISO + 100 μmol/L GTP, WT): 78+/−6 pmol/15 min/mg

CNC[C@H](O)c1cccc(O)c1 [Phenylephrine]
systolic arterial pressure (WT and AC5KO mice; 0.2 μg/g (0.2 mg/kg) i.v., WT and AC5KO): increased systolic arterial pressure significantly in both WT and AC5KO; also recorded: increased systolic arterial pressure similarly in both WT and AC5KO

CN1[C@@H]2CC[C@H]1C[C@@H](OC(=O)C(CO)c1ccccc1)C2 (some centres unmarked) [atropine]
increase in HR in AC5KO (WT and AC5KO mice; 1 μg/g i.v., AC5KO): 19+/−7.5 beats/min
increase in HR in WT (WT and AC5KO mice; 1 μg/g i.v., WT): 102+/−22.2 beats/min

Nc1nc(Cl)nc2c1ncn2[C@H]1C[C@H](O)[C@@H](CO)O1 [cladribine, 2-chloro-2′-deoxyadenosine]
inhibition of cAMP accumulation in H9C2 cells (H9C2 cells): slight inhibition

COc1ccc(CCN(C)CCCC(C#N)(c2ccc(OC)c(OC)c2)C(C)C)cc1OC (centres unmarked) [verapamil]
change in HR in AC5KO (WT and AC5KO mice; 0.75 mg/kg i.v., AC5KO): −33+/−10 beats/min
change in HR in WT (WT and AC5KO mice; 0.75 mg/kg i.v., WT): −36+/−10 beats/min

Cc1cn([C@H]2C[C@H](N=[N+]=[N-])[C@@H](COP(=O)(O)OP(=O)(O)OP(=O)(O)O)O2)c(=O)[nH]c1=O [zidovudine-TP, zidovudine triphosphate]
inhibition of cAMP accumulation in H9C2 cells (H9C2 cells): little inhibition
mode of inhibition with respect to ATP (type 5 AC): competitive
